One block for each substance: values may come before it. Ends that are not written are not given here.
What was measured:
[1] = tested on: [125I]-R3/I5 binding sites (GPCR135) in rat brain; assay: Quantitative receptor autoradiography, inhibition of [125I]-R3/I5 binding on rat brain sections; settings: 7 pM [125I]-R3/I5; all regions investigated
Procedure: (§1) Rats were asphyxiated by carbon dioxide. Brains were immediately removed from the skull and rapidly frozen in dry-ice. Twenty-micron-thick frontal sections were cut using a Cryostat-microtome (Microm HM505E, Mikron, San Diego, Calif.) and thaw-mounted on adhesive microscope slides (Superfrost^+ Plus, VWR). The sections were kept at −70° C. until use. The sectioning protocol for the regional distribution study included series of coronal sections covering the entire brain.
Sections were thawed and dried under a cold air stream and then pre-incubated for 15 min. at room temperature in incubation buffer (20 mM HEPES, pH 7.4, 120 mM NaCl2, 0.22 mM KH2PO4, 1.3 mM CaCl2, 0.8 mM MgSO4) by immersing sections in a 400 ml jar. Sections were dried again under a cold air stream and incubated for 60 min. with 7 pM [^125I]-R3/I5 (specific activity, 2200 Ci/mmole) in incubation buffer containing 0.5% BSA and protease inhibitor cocktail. […] Nonspecific binding was determined in the presence of 100 nM of human R3. After incubation, the excess radioligand was washed off by immersing the slides in the jar containing incubation buffer at 4° C. (3 times 10 min.) followed by a quick immersion in water. Sections were dried and exposed to Fujifilm Imaging plates (BAS-MS 2025) for 48 hrs. […]

GPCR135 = biological target: T1, GPCR135 (Homo sapiens, UniProt Q9NSD7); assay: Binding of radioligands to COS-7 cells transfected with GPCR135
T1 construct: expressed in transfected cells
T1 sequence (Q9NSD7 1-469): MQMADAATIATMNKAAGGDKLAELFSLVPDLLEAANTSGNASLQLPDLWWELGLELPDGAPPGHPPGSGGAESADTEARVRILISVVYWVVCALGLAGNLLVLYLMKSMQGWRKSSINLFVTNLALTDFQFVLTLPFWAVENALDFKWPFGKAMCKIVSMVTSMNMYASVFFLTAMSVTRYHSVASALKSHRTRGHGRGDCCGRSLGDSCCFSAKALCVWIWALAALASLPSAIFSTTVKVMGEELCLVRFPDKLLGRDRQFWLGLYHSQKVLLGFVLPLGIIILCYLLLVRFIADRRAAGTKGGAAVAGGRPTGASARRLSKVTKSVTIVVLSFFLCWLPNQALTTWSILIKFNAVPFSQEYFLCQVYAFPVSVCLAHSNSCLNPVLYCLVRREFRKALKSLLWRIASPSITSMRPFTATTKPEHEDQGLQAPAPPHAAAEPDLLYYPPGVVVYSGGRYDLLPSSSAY
Procedure: (§2) FIGS. 5A-5D illustrate a comparative analysis of the binding specificities of [^125I]-relaxin-3 and [^125I]-R3/I5 for GPCR135 and LGR7. COS-7 cells in 6-well culture dishes were transfected with human GPCR135 and LGR7, respectively. Mock transfected COS-7 cells were used as the negative controls. [^125I]-relaxin-3 (FIG. 5A) or [^125I]-R3/I5 (FIG. 5B) was added to cells at a final concentration of 100 pM either in the absence or presence of 1 uM of unlabeled relaxin-3 to determine total binding and non-specific binding, respectively. FIG. 5C depicts an autoradiogram of [^125]-relaxin-3 binding in rat brain sagittal section. FIG. 5D depicts an autoradiogram of non-specific binding of [^125]-relaxin-3 as determined in the presence of 100 nM of unlabeled relaxin-3. FIG. 5E depicts an autoradiogram of [^125]-R3/I5 binding in rat brain sagittal section. […] binding of [^125]-R3/I5 as determined in the presence of 100 nM of unlabeled relaxin-3.

LGR7 = biological target: T2, LGR7 (Homo sapiens, UniProt Q9HBX9); assay: Binding of radioligands to COS-7 cells transfected with LGR7; settings: radioligand 100 pM
T2 construct: Human LGR7 cDNA containing the complete coding region was PCR amplified; expressed in transfected cells
T2 sequence (Q9HBX9 1-757): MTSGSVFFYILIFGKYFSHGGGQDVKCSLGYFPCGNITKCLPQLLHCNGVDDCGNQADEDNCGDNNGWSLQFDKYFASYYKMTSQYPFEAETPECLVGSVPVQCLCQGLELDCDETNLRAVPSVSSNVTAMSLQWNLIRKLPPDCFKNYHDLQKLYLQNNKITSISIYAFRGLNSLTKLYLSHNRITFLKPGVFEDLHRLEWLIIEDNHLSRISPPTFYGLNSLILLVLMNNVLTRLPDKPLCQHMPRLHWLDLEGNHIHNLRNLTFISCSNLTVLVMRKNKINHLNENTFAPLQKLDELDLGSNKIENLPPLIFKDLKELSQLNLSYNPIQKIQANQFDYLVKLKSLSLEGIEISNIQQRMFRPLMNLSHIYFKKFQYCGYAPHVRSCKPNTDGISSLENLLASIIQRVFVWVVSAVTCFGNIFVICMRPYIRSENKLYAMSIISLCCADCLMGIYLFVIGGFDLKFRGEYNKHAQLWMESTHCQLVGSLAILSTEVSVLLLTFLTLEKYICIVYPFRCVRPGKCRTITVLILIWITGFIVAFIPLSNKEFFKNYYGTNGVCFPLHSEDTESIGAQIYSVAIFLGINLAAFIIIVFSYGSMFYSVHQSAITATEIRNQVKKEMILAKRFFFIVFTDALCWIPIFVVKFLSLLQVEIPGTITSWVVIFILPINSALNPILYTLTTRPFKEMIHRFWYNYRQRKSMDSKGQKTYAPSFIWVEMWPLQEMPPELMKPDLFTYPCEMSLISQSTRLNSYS
Procedure: as §2

[2] = tested on: GPCR135 binding sites in rat brain; assay: Receptor autoradiography, distribution of [125I]R3/I5 binding sites in rat brain; parameters: key: −: not detected; +: low density; ++: moderate density; +++: high density; settings: 7 pM, n = 3
Chain of GPCR135 binding sites in rat brain (as listed by the source): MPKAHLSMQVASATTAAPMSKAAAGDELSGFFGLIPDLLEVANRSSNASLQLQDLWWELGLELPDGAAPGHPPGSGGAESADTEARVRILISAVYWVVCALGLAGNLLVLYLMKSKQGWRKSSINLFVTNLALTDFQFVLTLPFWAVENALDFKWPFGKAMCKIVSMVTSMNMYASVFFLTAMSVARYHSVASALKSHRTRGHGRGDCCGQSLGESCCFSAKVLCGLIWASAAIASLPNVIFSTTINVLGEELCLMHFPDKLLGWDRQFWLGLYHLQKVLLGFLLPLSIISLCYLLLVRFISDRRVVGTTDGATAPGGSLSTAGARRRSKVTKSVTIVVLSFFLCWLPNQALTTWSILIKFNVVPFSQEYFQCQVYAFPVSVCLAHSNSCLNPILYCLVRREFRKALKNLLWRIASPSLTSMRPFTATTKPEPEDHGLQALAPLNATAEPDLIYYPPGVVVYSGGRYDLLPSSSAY
Procedure: as §1
Sections were thawed and dried under a cold air stream and then pre-incubated for 15 min. at room temperature in incubation buffer (20 mM HEPES, pH 7.4, 120 mM NaCl2, 0.22 mM KH2PO4, 1.3 mM CaCl2, 0.8 mM MgSO4) by immersing sections in a 400 ml jar. Sections were dried again under a cold air stream and incubated for 60 min. with 7 pM [^125I]-R3/I5 (specific activity, 2200 Ci/mmole) in incubation buffer containing 0.5% BSA and protease inhibitor cocktail. […] Nonspecific binding was determined in the presence of 100 nM of human R3. After incubation, the excess radioligand was washed off by immersing the slides in the jar containing incubation buffer at 4° C. (3 times 10 min.) followed by a quick immersion in water. Sections were dried and exposed to Fujifilm Imaging plates (BAS-MS 2025) for 48 hrs. The imaging plates were scanned using the Fuji Bio-Imaging Analyzer System (BAS-5000, Fuji Medical System, CT) and visualized using ImageGauge V3.12 software (Fuji Medical System, CT).
Cresyl-violet staining was performed on adjacent sections and the regions were identified using the rat brain atlas of Paxinos and Watson (Paxinos et al., 1998, The Rat Brain in Stereotaxic Coordinates, New York, Academic Press (publisher)). For illustration purposes, sections were exposed to autoradiography film ((Kodak Omat AR, Rochester N.Y.). After a 4-week exposure, they were automatically developed and fixed in a Konica SRY-101A machine (Konica Medical Corp., Wayne N.J.). Adobe Photoshop 7.0 and Illustrator 9.0 were used for preparation of the figures.

Chain of [125I]-R3/I5 binding sites (GPCR135) in rat brain (as listed by the source): as above

Substance: Relaxin: human relaxin (R1) used as competitor in Example 6 (KWKDDVIKLCGRELVRAQIAICGMSTWSRPYVALFEKCCLIGCTKRSLAKYC)
displacement of [125I]-R3/I5 binding sites, in words [1]: did not displace any significant amount of [^125I]-R3/I5 binding sites at concentrations of up to 100 nM

binding to GPCR135 expressing cells, in words (GPCR135; radioligand 100 pM): high affinity
[125I]R3/I5 binding sites, density ([2]; Amygdaloid body: Amygdalohippocampal area): +++
[125I]R3/I5 binding sites, density ([2]; Amygdaloid body: Bed nucleus stria terminalis): ++
[125I]R3/I5 binding sites, density ([2]; Amygdaloid body: Central nucleus): ++
[125I]R3/I5 binding sites, density ([2]; Amygdaloid body: Lateral nucleus): ++
[125I]R3/I5 binding sites, density ([2]; Amygdaloid body: Medial nucleus): ++
[125I]R3/I5 binding sites, density ([2]; Brain stem: Dorsal raphe, dorsal part): +
[125I]R3/I5 binding sites, density ([2]; Brain stem: Inferior colliculus): ++
[125I]R3/I5 binding sites, density ([2]; Brain stem: Interpeduncular nucleus): +++
[125I]R3/I5 binding sites, density ([2]; Brain stem: Nucleus incertus): ++
[125I]R3/I5 binding sites, density ([2]; Brain stem: Periaqueductal gray area): ++
[125I]R3/I5 binding sites, density ([2]; Brain stem: Spinal trigeminal tract): ++
[125I]R3/I5 binding sites, density ([2]; Brain stem: Superior colliculus): +++
[125I]R3/I5 binding sites, density ([2]; Cortex: Motor): ++
[125I]R3/I5 binding sites, density ([2]; Cortex: Piriform): ++
[125I]R3/I5 binding sites, density ([2]; Cortex: Somatosensory): ++
[125I]R3/I5 binding sites, density ([2]; Cortex: Temporal): ++
[125I]R3/I5 binding sites, density ([2]; Cortex: Visual): ++
[125I]R3/I5 binding sites, density ([2]; Habenula: Medial): ++
[125I]R3/I5 binding sites, density ([2]; Hippocampal formation: CAB field): +
[125I]R3/I5 binding sites, density ([2]; Hippocampal formation: Dentate gyrus): +
[125I]R3/I5 binding sites, density ([2]; Hypothalamus: Lateral nucleus): −
[125I]R3/I5 binding sites, density ([2]; Hypothalamus: Paraventricular nucleus): ++
[125I]R3/I5 binding sites, density ([2]; Hypothalamus: Supraoptic nucleus): ++
[125I]R3/I5 binding sites, density ([2]; Olfactory System: Anterior olfactory nucleus): +++
[125I]R3/I5 binding sites, density ([2]; Olfactory System: Olfactory bulb): +++
[125I]R3/I5 binding sites, density ([2]; Septal region: Lateral): +
[125I]R3/I5 binding sites, density ([2]; Thalamus: Centro lateral): ++
[125I]R3/I5 binding sites, density ([2]; Thalamus: Centro medial): ++
[125I]R3/I5 binding sites, density ([2]; Thalamus: Paraventricular): ++
Substance: [^125I]-R3/I5: radioiodinated R3/I5 chimera used as tracer (RAAPYGVRLCGREFIRAVIFTCGGSRWQDLQTLCCTDGCSMTDLSALC; ends and bridges not checked; also: radioiodinated (125I), site not given here)
non-specific binding, in words (GPCR135; in presence of 1 uM unlabeled relaxin-3): lower non-specific binding than [^125I]-relaxin-3
binding to LGR7, in words (LGR7): did not demonstrate significant binding to LGR7

From patent US7893197B2, “Relaxin-3 chimeric polypeptides and their preparation and use” (Janssen Pharmaceutica N.V., priority 2005, dated 2011)
